According to PubChem BioAssay (NCI):
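1) Cells in 96-well plates. 2) Compound, 48 h, 5 concentrations. 3) Linear interpolation between surrounding doses. 4) Unreached endpoint = highest concentration. At the GI50, growth is halved. At the TGI there is no net growth.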

What was measured:
Assay in all cases: NCI anticancer screen, dose series, 48 h
[1] = system: SR leukemia
[2] = system: OVCAR-4 ovarian
[3] = system: MALME-3M melanoma
[4] = system: TK-10 renal
[5] = system: HOP-92 NSCLC
[6] = system: A498 renal
[7] = system: NCI-H460 lung
[8] = system: OVCAR-3 ovarian
[9] = system: UO-31 renal
[10] = system: HCT-15 colon
[11] = system: CAKI-1 renal
[12] = system: OVCAR-8 ovarian
[13] = system: MDA-MB-435
[14] = system: SF-539 CNS
[15] = system: HT29 colon
[16] = system: T-47D breast
[17] = system: IGROV1 ovarian
[18] = system: UACC-257 melanoma
[19] = system: COLO 205 colon
[20] = system: ACHN renal
[21] = system: SNB-19 CNS
[22] = system: HCT-116 colon
[23] = system: KM12 colon
[24] = system: SK-MEL-5 melanoma
[25] = system: RPMI-8226 leukemia
[26] = system: SF-295 CNS
[27] = system: SK-MEL-28 melanoma
[28] = system: SW-620 colon
[29] = system: DU-145 prostate

**Q.** For `COc1ccc2c(c1)c(-c1nc(-c3cn(C)c4ncccc34)cs1)cn2CCCCN1CCOCC1`, which GI50 [1] is on record?
**A.** The GI50 was 724 nM.

**Q.** And the TGI [1]?
**A.** The TGI was 1980 nM.

**Q.** And the GI50 [2]?
**A.** Its GI50 is 1710 nM.

**Q.** What about the TGI [2] of the same compound?
**A.** The TGI was 4940 nM.

**Q.** What about the GI50 [3] of the same compound?
**A.** The GI50 was 1650 nM.

**Q.** And the TGI [3]?
**A.** Its TGI is 3410 nM.

**Q.** What about the GI50 [4] of the same compound?
**A.** Its GI50 is 2730 nM.

**Q.** What about the TGI [4] of the same compound?
**A.** The TGI was 8190 nM.

**Q.** And the GI50 [5]?
**A.** The GI50 was 922 nM.

**Q.** What about the TGI [5] of the same compound?
**A.** Its TGI is 3590 nM.

**Q.** And the GI50 [6]?
**A.** Its GI50 is 164 nM.

**Q.** What about the TGI [6] of the same compound?
**A.** The TGI was 1780 nM.

**Q.** What about the GI50 [7] of the same compound?
**A.** Its GI50 is 1190 nM.

**Q.** And the TGI [7]?
**A.** The TGI was 2910 nM.

**Q.** And the GI50 [8]?
**A.** The GI50 was 1620 nM.

**Q.** What about the TGI [8] of the same compound?
**A.** The TGI was 3380 nM.

**Q.** What about the GI50 [9] of the same compound?
**A.** Its GI50 is 1200 nM.

**Q.** What about the TGI [9] of the same compound?
**A.** Its TGI is 2560 nM.

**Q.** What about the GI50 [10] of the same compound?
**A.** The GI50 was 627 nM.

**Q.** What about the TGI [10] of the same compound?
**A.** The TGI was 1470 nM.

**Q.** And the GI50 [11]?
**A.** Its GI50 is 1390 nM.

**Q.** And the TGI [11]?
**A.** Its TGI is 2890 nM.

**Q.** And the GI50 [12]?
**A.** Its GI50 is 2300 nM.

**Q.** What about the TGI [12] of the same compound?
**A.** Its TGI is 5430 nM.

**Q.** What about the GI50 [13] of the same compound?
**A.** The GI50 was 1120 nM.

**Q.** And the TGI [13]?
**A.** The TGI was 2580 nM.

**Q.** And the GI50 [14]?
**A.** Its GI50 is 1560 nM.

**Q.** And the TGI [14]?
**A.** Its TGI is 3020 nM.

**Q.** What about the GI50 [15] of the same compound?
**A.** The GI50 was 766 nM.

**Q.** What about the TGI [15] of the same compound?
**A.** Its TGI is 1950 nM.

**Q.** And the GI50 [16]?
**A.** The GI50 was 7080 nM.

**Q.** And the TGI [16]?
**A.** The TGI was 29000 nM.

**Q.** What about the GI50 [17] of the same compound?
**A.** The GI50 was 2660 nM.

**Q.** What about the TGI [17] of the same compound?
**A.** The TGI was 10400 nM.

**Q.** And the GI50 [18]?
**A.** The GI50 was 1660 nM.

**Q.** What about the TGI [18] of the same compound?
**A.** The TGI was 3280 nM.

**Q.** What about the GI50 [19] of the same compound?
**A.** Its GI50 is 1690 nM.

**Q.** And the TGI [19]?
**A.** The TGI was 3560 nM.

**Q.** What about the GI50 [20] of the same compound?
**A.** The GI50 was 1590 nM.

**Q.** And the TGI [20]?
**A.** The TGI was 2990 nM.

**Q.** And the GI50 [21]?
**A.** The GI50 was 1650 nM.

**Q.** What about the TGI [21] of the same compound?
**A.** The TGI was 3490 nM.

**Q.** And the GI50 [22]?
**A.** The GI50 was 1800 nM.

**Q.** And the TGI [22]?
**A.** Its TGI is 3910 nM.

**Q.** And the GI50 [23]?
**A.** Its GI50 is 1420 nM.

**Q.** What about the TGI [23] of the same compound?
**A.** Its TGI is 3090 nM.

**Q.** What about the GI50 [24] of the same compound?
**A.** The GI50 was 1670 nM.

**Q.** And the TGI [24]?
**A.** Its TGI is 3060 nM.

**Q.** What about the GI50 [25] of the same compound?
**A.** The GI50 was 1250 nM.

**Q.** And the TGI [25]?
**A.** The TGI was 3890 nM.

**Q.** What about the GI50 [26] of the same compound?
**A.** Its GI50 is 1570 nM.

**Q.** And the TGI [26]?
**A.** The TGI was 3480 nM.

**Q.** What about the GI50 [27] of the same compound?
**A.** The GI50 was 1500 nM.

**Q.** And the TGI [27]?
**A.** The TGI was 2970 nM.

**Q.** And the GI50 [28]?
**A.** The GI50 was 745 nM.

**Q.** And the TGI [28]?
**A.** Its TGI is 1920 nM.

**Q.** What about the GI50 [29] of the same compound?
**A.** Its GI50 is 1710 nM.

**Q.** What about the TGI [29] of the same compound?
**A.** Its TGI is 5050 nM.
